The values below come from US20170326125A1, “MULTISUBSTITUTED AROMATIC COMPOUNDS AS INHIBITORS OF THROMBIN” (VERSEON CORPORATION, priority 2016, published 2017).

Bounds are passed on as bounds.

In one test the target is T1, Human thrombin (Homo sapiens, UniProt P00734).
T1 construct: purchased Haematologic Technologies Inc
As to the kind of experiment: Inhibition of the protease activity of thrombin (chromogenic substrate S-2238). Type of test: biochemical. To be noted: Table C; 3 nM thrombin, 125 μM S-2238, 10 min pre-incubation, RT. On the procedure: Compounds described herein can be assayed, by a variety of methods known in the art and described herein, for inhibition of biological activity, e.g., protease activity, of a variety of proteins, e.g., thrombin.
The thrombin activity reported herein (e.g., Table A) was obtained as follows. Human thrombin was obtained from Haematologic Technologies Inc. The chromogenic
Thrombin was assayed in buffer containing 0.05 M Tris (pH 7.4), 0.015 M NaCl and 0.01% PEG-8000. The final concentration of enzyme used was 3 nM thrombin. […] All assays were performed in 96-well microtiter plates at room temperature (RT). […] Inhibitor IC50 values were determined by adding test compound as ten point, three-fold serial dilutions in buffer solution, as known in the art. The plate was read at 10 minutes after substrate addition. The IC50 was calculated by plotting the percent (%) inhibition against compound concentration and fitting the data to a constrained four parameter sigmoidal curve, as known in the art.
On to `Nc1nc(-c2cccnc2)n[nH]1` [Cmpd 1, 3-(pyridin-3-yl)-1H-1,2,4-triazol-5-amine], for which the IC50 is more than 1 µM.

`Nc1n[nH]c(-c2ccccn2)n1` [Cmpd 2, 3-(pyridin-2-yl)-1H-1,2,4-triazol-5-amine] returned an IC50 of more than 1 µM.

Molecule `Nc1n[nH]c(-c2ccncc2)n1` [Cmpd 3, 3-(pyridin-4-yl)-1H-1,2,4-triazol-5-amine] displayed an IC50 of more than 1 µM.

`CCC(=O)n1nc(-c2cccnc2)nc1NCc1cccc(F)c1` [Cmpd 8, 1-(5-[(3-fluorophenyl)methyl]amino-3-(pyridin-3-yl)-1H-1,2,4-triazol-1-yl)propan-1-one] yielded an IC50 of 0.1 to 1 µM. As for `Nc1nc(-c2ccco2)n[nH]1` [Cmpd 25, 3-(furan-2-yl)-1H-1,2,4-triazol-5-amine], the concentration for half-maximal inhibition (IC50) is more than 1 µM.

Still in this test, the particulars now being: inhibition of the protease activity of thrombin; class symbols a/b/c.
`Fc1ccc(CNc2nc(-c3cccnc3)n[nH]2)cc1` [Cmpd 4] yielded a 50% inhibitory concentration (IC50) of more than 1 µM. Same read-out and setting: in the case of `CCC(=O)n1nc(-c2cccnc2)nc1NCc1ccccc1F` [Cmpd 9] it was 0.1 to 1 µM. With `CCC(=O)n1nc(-c2cccnc2)nc1NCc1ccc(C#N)cc1` [Cmpd 10], the half-inhibitory concentration (IC50) is more than 1 µM.

Molecule `O=C(c1ccccc1)n1nc(-c2ccncc2)nc1NCc1ccc(F)cc1` [Cmpd 14] yielded an IC50 of less than 0.1 µM. In the case of `O=C(c1ccsc1)n1nc(-c2ccncc2)nc1NCc1ccc(F)cc1` [Cmpd 15], the IC50 is less than 0.1 µM.

The molecule `COc1ccc(CNc2nc(-c3ccncc3)nn2C(=O)C(C)(C)C)cc1` [Cmpd 16] had an IC50 of less than 0.1 µM. The same measure, in the same setting: to `O=C(N1CCOCC1)n1nc(-c2cccnc2)nc1NCc1ccc(F)cc1` [Cmpd 17] belongs more than 1 µM; to `O=C(Nc1ccccc1F)n1nc(-c2cccnc2)nc1NCc1ccc(F)cc1` [Cmpd 18], more than 1 µM. Still for that read-out and setting: in the case of `CNC(=O)n1nc(-c2cccnc2)nc1NCc1ccc(F)cc1` [Cmpd 19] it was more than 1 µM; in that of `COC(=O)n1nc(-c2cccnc2)nc1NCc1ccc(F)cc1` [Cmpd 20], 0.1 to 1 µM. Same read-out and setting: to `O=C(Cn1nc(-c2cccnc2)nc1NCc1ccc(F)cc1)c1ccccc1` [Cmpd 21] belongs more than 1 µM. For the molecule `CCC(=O)n1nc(-c2cccnc2)nc1NCCc1ccccc1` [Cmpd 22], the IC50 is more than 1 µM. On the same count and under the same terms, in the case of `CCC(=O)n1nc(-c2cccnc2)nc1NCCN1CCOCC1` [Cmpd 23] it was more than 1 µM. The same measure, in the same setting: to `CCC(=O)n1nc(-c2cccnc2)nc1N(C)C` [Cmpd 24] belongs more than 1 µM; to `COc1ccccc1C(=O)n1nc(-c2ccco2)nc1NCc1ccc(F)cc1` [Cmpd 26], less than 0.1 µM; to `COc1ccccc1C(=O)n1nc(-c2cccs2)nc1NCc1ccc(F)cc1` [Cmpd 27], 0.1 to 1 µM.

As for `COc1ccccc1C(=O)n1nc(-c2ccncn2)nc1NCc1ccccc1` [Cmpd 33], the 50% inhibitory concentration (IC50) was less than 0.1 µM. Same read-out and setting: to `COc1ccccc1C(=O)n1nc(-c2cncnc2)nc1NCc1ccccc1` [Cmpd 34] belongs less than 0.1 µM.

Take `COc1ccccc1C(=O)n1nc(-c2ncccn2)nc1NCc1ccccc1` [Cmpd 35]: the 50% inhibitory concentration (IC50) was less than 0.1 µM. With `Cc1c(-c2ccccc2)nn(C(=O)C(C)(C)C)c1NCc1ccc(F)cc1` [Cmpd 38], the half-inhibitory concentration (IC50) is more than 1 µM.

As to `O=C(c1ccccc1Cl)n1nc(-c2ccccn2)cc1NCc1ccc(F)cc1` [Cmpd 41], the concentration for half-maximal inhibition (IC50) was 0.1 to 1 µM. Consider `Nc1cc(-c2ccccn2)nn1-c1ccccc1Cl` [Cmpd 42], for which the IC50 is more than 1 µM.

Turning to `O=C(Nc1cc(-c2ccccn2)nn1-c1ccccc1Cl)c1ccc(F)cc1` [Cmpd 43], the IC50 is more than 1 µM. For the molecule `Fc1ccc(CN(Cc2ccc(F)cc2)c2cc(-c3ccccn3)nn2-c2ccccc2Cl)cc1` [Cmpd 44], the IC50 was more than 1 µM.

With `Fc1ccc(CNc2cc(-c3ccccn3)nn2-c2ccccc2Cl)cc1` [Cmpd 45], the IC50 was more than 1 µM. `CCOC(=O)c1cn(-c2ccccn2)nc1NCc1ccc(F)cc1` [Cmpd 46] yielded an IC50 of more than 1 µM. For the molecule `O=C(O)c1cn(-c2ccccn2)nc1NCc1ccc(F)cc1` [Cmpd 47], the IC50 was more than 1 µM. On the same count and under the same terms, in the case of `CON(C)C(=O)c1cn(-c2ccccn2)nc1NCc1ccc(F)cc1` [Cmpd 48] it was more than 1 µM; in that of `CN(C)C(=O)c1cn(-c2ccccn2)nc1NCc1ccc(F)cc1` [Cmpd 49], more than 1 µM. Same read-out and setting: in the case of `CCC(=O)c1cn(-c2ccccn2)nc1NCc1ccc(F)cc1` [Cmpd 50] it was more than 1 µM. Turning to `CCOC(=O)c1cc(-c2ccccn2)nn1CCc1ccc(F)cc1` [Cmpd 51], the half-maximal inhibitory concentration (IC50) was more than 1 µM. Still for that read-out and setting: to `O=C(O)c1cc(-c2ccccn2)nn1CCc1ccc(F)cc1` [Cmpd 52] belongs more than 1 µM. With `CON(C)C(=O)c1cc(-c2ccccn2)nn1CCc1ccc(F)cc1` [Cmpd 53], the IC50 is more than 1 µM. Still for that read-out and setting: in the case of `O=C(c1cc(-c2ccccn2)nn1CCc1ccc(F)cc1)N1CCCCC1` [Cmpd 54] it was more than 1 µM. For `CCC(O)c1cc(-c2ccccn2)nn1CCc1ccc(F)cc1` (stereo not drawn) [Cmpd 55], the IC50 is more than 1 µM. In turn, `CCOC(=O)c1cc(-c2ccccn2)n(CCc2ccc(F)cc2)n1` [Cmpd 57] returned a 50% inhibitory concentration (IC50) of more than 1 µM. The molecule `O=C(O)c1cc(-c2ccccn2)n(CCc2ccc(F)cc2)n1` [Cmpd 58] yielded an IC50 of more than 1 µM. `O=C(c1cc(-c2ccccn2)n(CCc2ccc(F)cc2)n1)N1CCCCC1` [Cmpd 59] showed an IC50 of more than 1 µM. `CC(=O)c1cn(-c2ccccn2)nc1NCc1ccc(F)cc1` [Cmpd 60, 1-(3-[(4-fluorophenyl)methyl]amino-1-(pyridin-2-yl)-1H-pyrazol-4-yl)ethan-1-one] registered an IC50 of more than 1 µM.

For `CC(=O)c1cn(-c2ccccc2)nc1NCc1ccc(F)cc1` [Cmpd 61, 1-(3-[(4-fluorophenyl)methyl]amino-1-phenyl-1H-pyrazol-4-yl)ethan-1-one], the IC50 is more than 1 µM. Regarding `CCC(=O)c1cn(-c2ccccc2)nc1NCc1ccc(F)cc1` [Cmpd 62, 1-(3-[(4-fluorophenyl)methyl]amino-1-phenyl-1H-pyrazol-4-yl)propan-1-one], the 50% inhibitory concentration (IC50) is more than 1 µM. `CCC(=O)n1nc(-c2ccco2)nc1NCc1ccc(F)cc1` [Cmpd 63, 1-(5-[(4-fluorophenyl)methyl]amino-3-(furan-2-yl)-1H-1,2,4-triazol-1-yl)propan-1-one] showed an IC50 of less than 0.1 µM. `O=C(Cc1ccccc1)n1nc(-c2ccccn2)nc1NCc1ccc(F)cc1` [Cmpd 66, 1-(5-[(4-fluorophenyl)methyl]amino-3-(pyridin-2-yl)-1H-1,2,4-triazol-1-yl)-2-phenylethan-1-one] showed a half-inhibitory concentration (IC50) of less than 0.1 µM. Turning to `CC(C)CC(=O)n1nc(-c2ccccn2)nc1NCc1ccc(F)cc1` [Cmpd 67, 1-(5-[(4-fluorophenyl)methyl]amino-3-(pyridin-2-yl)-1H-1,2,4-triazol-1-yl)-3-methylbutan-1-one], the 50% inhibitory concentration (IC50) was less than 0.1 µM.

The molecule `O=C(CCc1ccccc1)n1nc(-c2ccccn2)nc1NCc1ccc(F)cc1` [Cmpd 68, 1-(5-[(4-fluorophenyl)methyl]amino-3-(pyridin-2-yl)-1H-1,2,4-triazol-1-yl)-3-phenylpropan-1-one] yielded an IC50 of less than 0.1 µM.

As for `CCCC(=O)n1nc(-c2ccccn2)nc1NCc1ccc(F)cc1` [Cmpd 69, 1-(5-[(4-fluorophenyl)methyl]amino-3-(pyridin-2-yl)-1H-1,2,4-triazol-1-yl)butan-1-one], the concentration for half-maximal inhibition (IC50) is less than 0.1 µM. As to `CC(C)(C)C(=O)n1nc(-c2cccnc2)nc1NCc1ccc(F)cc1` [Cmpd 71, 1-(5-[(4-fluorophenyl)methyl]amino-3-(pyridin-3-yl)-1H-1,2,4-triazol-1-yl)-2,2-dimethylpropan-1-one], the IC50 was less than 0.1 µM. On the same count and under the same terms, to `CC(C)(C)C(=O)Cn1nc(-c2cccnc2)nc1NCc1ccc(F)cc1` [Cmpd 72, 1-(5-[(4-fluorophenyl)methyl]amino-3-(pyridin-3-yl)-1H-1,2,4-triazol-1-yl)-3,3-dimethylbutan-2-one] belongs more than 1 µM; to `CC(=O)Cn1nc(-c2cccnc2)nc1NCc1ccc(F)cc1` [Cmpd 73, 1-(5-[(4-fluorophenyl)methyl]amino-3-(pyridin-3-yl)-1H-1,2,4-triazol-1-yl)propan-2-one], more than 1 µM; to `CCC(=O)n1nc(-c2cccnc2)cc1NCc1ccc(F)cc1` [Cmpd 74, 1-(5-[(4-fluorophenyl)methyl]amino-3-(pyridin-3-yl)-1H-pyrazol-1-yl)propan-1-one], more than 1 µM. Same read-out and setting: to `CC(C)(C)C(=O)n1nc(-c2ccncc2)nc1NCc1ccc(F)cc1` [Cmpd 75, 1-(5-[(4-fluorophenyl)methyl]amino-3-(pyridin-4-yl)-1H-1,2,4-triazol-1-yl)-2,2-dimethylpropan-1-one] belongs less than 0.1 µM; to `CC(C)C(=O)n1nc(-c2ccncc2)nc1NCc1ccc(F)cc1` [Cmpd 76, 1-(5-[(4-fluorophenyl)methyl]amino-3-(pyridin-4-yl)-1H-1,2,4-triazol-1-yl)-2-methylpropan-1-one], less than 0.1 µM. On the same count and under the same terms, to `O=C(Cc1ccccc1)n1nc(-c2ccncc2)nc1NCc1ccc(F)cc1` [Cmpd 77, 1-(5-[(4-fluorophenyl)methyl]amino-3-(pyridin-4-yl)-1H-1,2,4-triazol-1-yl)-2-phenylethan-1-one] belongs less than 0.1 µM; to `CC(C)CC(=O)n1nc(-c2ccncc2)nc1NCc1ccc(F)cc1` [Cmpd 78, 1-(5-[(4-fluorophenyl)methyl]amino-3-(pyridin-4-yl)-1H-1,2,4-triazol-1-yl)-3-methylbutan-1-one], less than 0.1 µM. As to `O=C(CCc1ccccc1)n1nc(-c2ccncc2)nc1NCc1ccc(F)cc1` [Cmpd 79, 1-(5-[(4-fluorophenyl)methyl]amino-3-(pyridin-4-yl)-1H-1,2,4-triazol-1-yl)-3-phenylpropan-1-one], the IC50 was less than 0.1 µM.
